Measurements published in patent US12667557B2, “Method for treating EGFR-TKI-resistant non-small cell lung cancer by administration of anti-HER3 antibody-drug conjugate” (priority 2017, dated 2026).

Key:
[1] = system: cell strain PC9AZDR7; test: Cell proliferation suppressing activity of osimertinib against cell strain PC9AZDR7; format: cell-based, human; details: 1 μM or lower concentrations of osimertinib; 3rd day of treatment
Protocol: (§1) Cell strains PC9 and PC9AZDR7 were cultured in RPMI1640 medium (manufactured by Sigma-Aldrich Corp.) containing 10% fetal bovine serum and 1% penicillin-streptomycin B (manufactured by Wako Pure Chemical Industries, Ltd.). PC9AZDR7 was cultured with 100 nM osimertinib added to the medium. After cell strains PC9 and PC9AZDR7 were cultured, the cells were detached by trypsin treatment and then collected. […] Subsequently, 50 μL of each cell suspension was added into each well of SUMILON 96-well plate (manufactured by Sumitomo Bakelite Co., Ltd.) (10,000 cells/well), and culture was carried out. One day after the initiation of culture, osimertinib dilutions, each of which was prepared to have one of various concentrations, or as a negative control, RPMI-1640 medium not containing any drug was added, and culture was carried out. […] The plate was left to stand for 30 minutes under light-shielded conditions. […] The cell proliferation suppressing activity (% of control) of each drug was calculated using the following formula. % of Control=(Average luminescence value in specimen-added wells÷average luminescence value in negative control wells)×100

[2] = system: cell strain PC9AZDR7 transplanted in nude mice; test: Antitumor effect of combination of HER3-ADC (1) and osimertinib on cell strain PC9AZDR7 transplanted in nude mice; format: in vivo, nude mice (BALB/cAJcl-nu/nu); details: for Estimated tumor volume Average value: HER3-ADC (1) 1 mg/kg i.p. on Day 1, osimertinib 1 mg/kg oral Days 1-5, 8-12, 15-19; for Tumor growth inhibition ratio (%): compared with the control group, HER3-ADC (1) 1 mg/kg i.p., osimertinib 1 mg/kg oral
Protocol: Cell strain PC9AZDR7 was cultured in RPMI1640 medium (manufactured by Sigma-Aldrich Corp.) containing 10% fetal bovine serum and 1% penicillin-streptomycin B (manufactured by Wako Pure Chemical Industries, Ltd.) and 100 nM osimertinib. After cell strain PC9AZDR7 was cultured, the cells were detached by trypsin treatment and then collected. […] From the next day of grouping (1st day), drug administration was initiated. […] As a control group, a group not receiving any administration was established. […] After the initiation of administration, the tumor diameters (major axis and minor axis) were measured twice a week, and the estimated tumor volume in each group was calculated according to the following formula. Subsequently, the average value of the estimated tumor volume for each group was calculated. […] The tumor growth inhibition ratio of each group compared with the control group was calculated using the following formula.

[3] = system: cell strain PC9; test: Cell proliferation suppressing activity of osimertinib against cell strain PC9; format: cell-based, human; details: 0.01 μM or higher concentrations of osimertinib; 3rd day of treatment
Protocol: as §1

[4] = system: cell strain HCC827GR5; test: Cell proliferation suppressing activity (CellTiter Glo) against cell strain HCC827GR5; format: cell-based, human; details: 7th day of treatment
Protocol: Cell strain HCC827GR5 was cultured in a medium obtained by adding gefitinib at a final concentration of 1 μM into the aforementioned medium.
Cell strain HCC827GR5 was cultured in a medium obtained by adding gefitinib at a final concentration of 1 μM into RPMI1640 medium (manufactured by Sigma-Aldrich Corp.) containing R10 medium (10% fetal bovine serum and 1% penicillin-streptomycin B (manufactured by Wako Pure Chemical Industries, Ltd.)). After cell strain HCC827GR5 was cultured, the cells were detached by trypsin treatment and then collected. The number of cells in the cell suspension was measured, and the cells were suspended in RPMI1640 medium containing 10% fetal bovine serum. The suspension was adjusted to have a concentration of 100,000 cells/mL. 50 μL of each cell suspension was added to each well of SUMILON 96-well plate (manufactured by Sumitomo Bakelite Co., Ltd.) (5,000 cells/well), and culture was carried out. […] On the 7th day from the initiation of treatment, 50 μL of CellTiter Glo (manufactured by Promega Corp.) was added to each well and then the culture system was stirred for 2 minutes with a plate mixer. The plate was left to stand for 30 minutes under light-shielded conditions. An aliquot of 120 μL was taken from each well and was transferred onto a black microplate, and the luminescence values were measured with a luminometer.

[5] = system: cell strain HCC827GR5; details: reported in K. Yonesaka et al., Oncogene (2016) 35, 878-886; cited from earlier work
[6] = system: cell strain HCC827GR5 transplanted in nude mice; test: Antitumor effect on cell strain HCC827GR5 transplanted in nude mice; format: in vivo, nude mice (BALB/cAJcl-nu/nu); details: for Estimated tumor volume Average value: HER3-ADC (1) 10 mg/kg i.p. once a week, erlotinib 25 mg/kg oral six times a week; for Tumor growth inhibition ratio (%): compared with the control group, HER3-ADC (1) 10 mg/kg i.p., erlotinib 25 mg/kg oral
Protocol: Cell strain HCC827GR5 was cultured in RPMI1640 medium (manufactured by Sigma-Aldrich Corp.) containing R10 medium (10% fetal bovine serum and 1% penicillin-streptomycin B (manufactured by Wako Pure Chemical Industries, Ltd.)) and erlotinib at a final concentration of 1 μM, subsequently the cells were detached by trypsin treatment and then collected. The number of cells in the cell suspension was measured, and the cells were suspended in R10 medium. The suspension was adjusted to have a concentration of 75,000,000 cells/mL. 100 μL of the cell suspension thus prepared (7,500,000 cells) was transplanted subcutaneously into the ventral region of 6-week old female nude mice (BALB/cAJcl-nu/nu), and then after 7 days from tumor transplantation, at which the average value of the estimated […] tumor volume of the transplanted tumors became […], grouping was carried out. Then, drug administration was initiated (day 0). HER3-ADC (1) was dissolved in phosphate buffer saline (PBS), and the solution was adjusted to have a concentration of 1 mg/mL. Erlotinib was dissolved in a hydroxypropylmethyl cellulose (HPMC) solution, and the solution was adjusted to have a concentration of 2.75 mg/mL. To the single-agent treatment groups of each drug, from day 0 to day 49 at the maximum, prepared HER3-ADC (1) was administered intraperitoneally once a week (7 times in total) at a dose of 200 μL/mouse (10 mg/kg), and prepared erlotinib was administered orally six times a week (19 in total) at a dose of 0.18 mL/mouse (25 mg/kg). On the other hand, to the combination treatment group, HER3-ADC (1) and erlotinib were administered from day 0 at the same dose in the same schedule as those of the single-agent treatment groups. A control group, which was not subjected to administration, was also established. For all of the groups, ten mice were used per group. After the initiation of administration, the tumor diameters (major axis and minor axis) were measured twice a week (on days 0, 3, 7, 10, 14, 17, 21, 24, 28, 31, 35, 38, 41, 45, and 49), and the estimated tumor volumes in each group were calculated according to the following formula. Subsequently, the average value of the estimated tumor volume for each group was calculated. Estimated tumor volume (Volume, mm^3)=major axis (mm)×minor axis (mm)^2÷2
Furthermore, the tumor growth inhibition ratio of each group compared with the control group was calculated according to the following formula. Tumor growth inhibition ratio (%)=100−(average value of estimated tumor volume of treatment group÷average value of estimated tumor volume of control group×100)
From the viewpoint of animal ethics, the measurement for the control and erlotinib single-agent treatment groups was terminated at the 21st day since the estimated tumor volume reached 1,200 to 1,500 mm^3. Along with this, the calculation of the tumor growth inhibition ratio (%) was made up to day 21.

Compound: C=CC(=O)Nc1cc(Nc2nccc(-c3cn(C)c4ccccc34)n2)c(OC)cc1N(C)CCN(C)C [Osimertinib, osimertinib]
- cell proliferation suppressing activity [1]: no cell proliferation suppressing activity was observed
- Estimated tumor volume Average value ([2]; Day 0): 64.2 mm^3
- Tumor growth inhibition ratio (%) ([2]; Day 0): 5.3%
- Estimated tumor volume Average value ([2]; Day 5): 249.3 mm^3
- Tumor growth inhibition ratio (%) ([2]; Day 5): 6.0%
- Estimated tumor volume Average value ([2]; Day 8): 271.7 mm^3
- Tumor growth inhibition ratio (%) ([2]; Day 8): 5.8%
- Estimated tumor volume Average value ([2]; Day 11): 357.2 mm^3
- Tumor growth inhibition ratio (%) ([2]; Day 11): 17.9%
- Estimated tumor volume Average value ([2]; Day 16): 533.4 mm^3
- Tumor growth inhibition ratio (%) ([2]; Day 16): 6.7%
- Estimated tumor volume Average value ([2]; Day 18): 650.7 mm^3
- Tumor growth inhibition ratio (%) ([2]; Day 18): 9.8%
- Estimated tumor volume Average value ([2]; Day 21): 710.6 mm^3
- Tumor growth inhibition ratio (%) ([2]; Day 21): 27.7%
- cell proliferation suppressing activity [3]: Strong cell proliferation suppressing activities

Compound: C#Cc1cccc(Nc2ncnc3cc(OCCOC)c(OCCOC)cc23)c1 [Erlotinib, erlotinib]
- cell proliferation suppressing activity (% Control) ([4]; 1 μg/mL of erlotinib (so in the source)): 69.2%
- cell proliferation suppressing activity (% Control) ([4]; 3.3 μg/mL of erlotinib (so in the source)): 52.6%
- cell proliferation suppressing activity (% Control) ([4]; 10 μg/mL of erlotinib (so in the source)): 31.7%
- sensitivity to alone therapy [5]: not to exhibit strong sensitivity
- Estimated tumor volume Average value ([6]; Day 0): 124.5 mm^3
- Tumor growth inhibition ratio (%) ([6]; Day 0): 2.7%
- Estimated tumor volume Average value ([6]; Day 3): 189.7 mm^3
- Tumor growth inhibition ratio (%) ([6]; Day 3): 22.0%
- Estimated tumor volume Average value ([6]; Day 7): 347.5 mm^3
- Tumor growth inhibition ratio (%) ([6]; Day 7): 26.0%
- Estimated tumor volume Average value ([6]; Day 10): 420.0 mm^3
- Tumor growth inhibition ratio (%) ([6]; Day 10): 29.1%
- Estimated tumor volume Average value ([6]; Day 14): 747.8 mm^3
- Tumor growth inhibition ratio (%) ([6]; Day 14): 14.5%
- Estimated tumor volume Average value ([6]; Day 17): 1117.9 mm^3
- Tumor growth inhibition ratio (%) ([6]; Day 17): 20.4%
- Estimated tumor volume Average value ([6]; Day 21): 1225.5 mm^3
- Tumor growth inhibition ratio (%) ([6]; Day 21): 21.1%
- antitumor effect / efficacy (in words) ([6]; on Day 21, Dunnet's Multiple Comparison test p<0.001 for the significant effects): did not exhibit efficacy
